For test [1], the system named is melanoma A375 cells. As to the kind of experiment: WST-1 antiproliferative assay. The format is cell-based. As to conditions: Homo sapiens, A-375. From the text: The A375 malignant melanoma cell line (ECACC 88113005, Salisbury, UK) was procured from the European Collection of Authenticated Cell Cultures (ECACC). The primary culture of human dermal fibroblasts (HDF) was derived from skin according to the protocol approved by the Ethical Committee of Pomeranian Medical University in Szczecin (KB-0012/02/18). The detailed protocol of fibroblast isolation, authentication, and cell culture conditions was previously described. Both cell lines were cultivated in a humidified incubator under conditions of 5% CO2 and a temperature of 37°C, using Dulbecco’s modified Eagle’s medium (DMEM) with 4500 mg/L glucose (Sigma-Aldrich Merck Group, St. Louis, MO, USA) enriched with 10% heat-inactivated fetal bovine serum (FBS, EURx, Gdańsk, Poland), 2 mM L-glutamine (Sigma-Aldrich Merck Group, St. Louis, MO, USA), and penicillin-streptomycin solution (Sigma-Aldrich Merck Group, St. Louis, MO, USA). Regular assessments for the presence of mycoplasma were conducted using the MycoAlert® Mycoplasma Detection Kit (Lonza, Rockland, ME, USA).
The evaluation of the antiproliferative activity of the compounds was performed using the Cell Proliferation Reagent WST-1 assay (Roche, Germany). This assay relies on the reduction of tetrazolium salt to formazan, with the final amount of formazan proportional to the number of viable cells. In our study, A375 cells (2×10^3) and HDF (3×10^3) were initially seeded into 96-well plates and cultured in a humidified atmosphere of 5% CO2 at 37°C. 24 hours later, the culture medium was replaced with a medium containing the tested compounds for a 48-hour incubation period at specified final concentrations. […] For control purposes, cells without the tested compounds, which contained only the vehicle (DMSO), were used. Additionally, a blank sample consisting of tested compounds in a medium (without cells) was included. After the 48-hour incubation period, the WST-1 reagent was introduced and allowed to incubate with the cells for 30 minutes. The absorbance was subsequently measured at 450 nm with background correction at 620 nm using a microplate reader (Infinite 200 Pro, Tecan, Männedorf, Switzerland). Cell viability was calculated according to the following formula: [(Atest–Ablank)/ (Acontrol − Ablank)] × 100%. These measurements were conducted in triplicate for at least three independent experiments.
In the screening step, 10 µM solutions of all 33 compounds were tested on A375 cells. […] Selected compounds (2c, 18e, 16b, 29) were tested at concentrations of 0.1, 1, 10, 50, and 100 µM. The IC50 values were determined using an online calculator (AAT Bioquest, Inc., Quest Graph™ IC50 Calculator (v.1). Retrieved from https://www.aatbio.com/tools/IC50-calculator-v1, accessed on: 2022, December 12).
Background: Formazan colour is commonly taken as a measure of viable cells.

In test [2] the test system is A375 cells. As to the kind of experiment: Annexin V-PE/7-AAD apoptosis assay (Muse). The format is cell-based. The conditions noted are these: 48 h, early and late apoptotic. The method, then:
In this study, A375 cells were initially seeded into 24-well plates at a density of 1×10^4 cells per well. After 24 hours, the cell culture medium was carefully removed, and a new medium containing 16b and 29 at varying final concentrations (1, 5, and 10 µM) was added, followed by an additional 48-hour incubation. Cells in a medium containing 0.2% DMSO served as the control group. After the treatment period, cells were washed with phosphate-buffered saline (PBS), and both the cell medium and PBS wash were retained. The cells were then detached using trypsin and centrifuged. The resulting cell pellet was suspended in a fresh medium after discarding the supernatant. An equivalent volume of Muse Annexin V & Dead Cell Reagent (Luminex Corporation, Austin, TX, USA) was added and thoroughly mixed through repeated pipetting. The staining procedure was conducted for 20 minutes at room temperature in the absence of light. The Muse Cell Analyzer (Luminex Corporation, Austin, TX, USA) was utilized for analysis. This assay detects phosphatidylserine (PS) on apoptotic cell surfaces using annexin V-PE (phycoerythrin) binding. A 7-AAD (7-aminoactinomycin D) marker was used to assess cell membrane integrity. The dual staining approach enabled the identification of four distinct cell groups: viable (Annexin V-PE− and 7-AAD−), early apoptotic (Annexin V-PE+ and 7-AAD−), late apoptotic/dead (Annexin V-PE+ and 7-AAD+), and primarily nuclear debris (Annexin V-PE− and 7-AAD+). The findings were based on at least three separate experimental runs.

The structures appear in SMILES notation.

`COc1cc(Cn2cc(-c3cccs3)ccc2=S)cc(OC)c1OC` [Compound 16b]: in test [1] (10 µM, 48 h of treatment, A375, read-out: Cell proliferation (% control)), the activity at 10 µM amounted to 42.8 ± 22.9%. Also, inhibition in test [1] (48 hours of treatment) was half-maximal at 1.85 ± 0.44 µM (IC50). Moreover, the “percentage of annexin-positive cells” value in test [2] (5 µM) is 18.43 ± 2.90%; in test [2] (10 µM), 30.50 ± 1.27%.

For the origin of these results see article PMC13223435, “Synthesis and Antiproliferative Activity against Melanoma Cells of New Heterocyclic Hybrids Based on Pyridine and Pyrimidine Scaffolds” (Current Medicinal Chemistry, 2025).
